This is an account of results in patent US10800782B2, “Inhibitors of cellular metabolic processes” (Agios Pharmaceuticals, Inc., priority 2016, dated 2020).

Structures are written as SMILES.

In this assay the target is T1, MAT2A (Homo sapiens, UniProt P31153).
T1 construct: His6; made in house; host or cells: SF9 insect cells
T1 sequence (P31153 whole entry): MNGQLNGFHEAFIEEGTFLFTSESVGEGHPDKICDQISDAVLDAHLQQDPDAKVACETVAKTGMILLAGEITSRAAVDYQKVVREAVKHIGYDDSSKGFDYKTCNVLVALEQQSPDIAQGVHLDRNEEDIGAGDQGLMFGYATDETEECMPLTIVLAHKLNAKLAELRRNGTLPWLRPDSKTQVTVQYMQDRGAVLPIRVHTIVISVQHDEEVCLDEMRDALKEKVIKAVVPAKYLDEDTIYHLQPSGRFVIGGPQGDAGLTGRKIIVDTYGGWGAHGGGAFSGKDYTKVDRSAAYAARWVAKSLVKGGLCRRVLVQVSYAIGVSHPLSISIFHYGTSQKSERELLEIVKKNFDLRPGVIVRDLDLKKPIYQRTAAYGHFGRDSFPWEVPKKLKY
In words: MAT2A biochemical assay (colorimetric inorganic phosphate detection, PiColorLock). The conditions noted are these: recombinant His6-tagged MAT2A 1 μg/ml; 60 minutes preincubation at 25° C.; L-Met 80 μM, ATP 100 μM; 60 minutes reaction; read at 623 nm; read-out: MAT2A Inhibition Score. The procedure, abridged: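 His6-tagged human MAT2A (SF9-expressed, 1 μg/ml) converting L-Met and ATP to SAM in Tris pH 8.0, 50 mM KCl, 15 mM MgCl2, 300 uM EDTA, 0.005% BSA; 60 min at room temperature. Released phosphate detected colorimetrically with malachite green phosphomolybdate. Ten-point, three-fold compound dilution series.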
As to `COc1ccc(-c2c(Nc3ccccn3)[nH]c3c(-c4cccc(Cl)c4)c(-c4ccccc4)nn3c2=O)cc1` [Compound 178, 3-(3-chlorophenyl)-6-(4-methoxyphenyl)-2-phenyl-5-(pyridin-2-ylamino)pyrazolo[1,5-a]pyrimidin-7(4H)-one], the IC50 is below 100 nM.

Regarding `COc1ccc(-c2c(Nc3ccccn3)[nH]c3c(-c4ccccc4F)c(-c4ccccc4)nn3c2=O)cc1` [Compound 179, 3-(2-fluorophenyl)-6-(4-methoxyphenyl)-2-phenyl-5-(pyridin-2-ylamino)pyrazolo[1,5-a]pyrimidin-7(4H)-one], the IC50 was below 100 nM.

For the compound `COc1ccc(-c2c(Nc3ccccn3)[nH]c3c(-c4ccccc4)c(-c4ccccn4)nn3c2=O)cc1` [Compound 180, 6-(4-methoxyphenyl)-3-phenyl-2-(pyridin-2-yl)-5-(pyridin-2-ylamino)pyrazolo[1,5-a]pyrimidin-7(4H)-one], the IC50 is below 100 nM.

In the case of `COc1ccc(-c2c(Nc3ccccn3)[nH]c3c(N4CCCCC4)c(-c4ccccc4)nn3c2=O)cc1` [Compound 181, 6-(4-methoxyphenyl)-2-phenyl-3-(piperidin-1-yl)-5-(pyridin-2-ylamino)pyrazolo[1,5-a]pyrimidin-7(4H)-one], the IC50 is below 100 nM.

Consider `COc1ccc(-c2c(Nc3cc[nH]n3)[nH]c3c(-c4ccccc4)c(-c4ccccc4)nn3c2=O)cc1` [Compound 182, 5-((1H-pyrazol-3-yl)amino)-6-(4-methoxyphenyl)-2,3-diphenylpyrazolo[1,5-a]pyrimidin-7(4H)-one], for which the IC50 was below 100 nM.

Take `COc1ccc(-c2c(Nc3cc(OC)[nH]n3)[nH]c3c(-c4ccccc4)c(-c4ccccc4)nn3c2=O)cc1` [Compound 183, 5-((5-methoxy-1H-pyrazol-3-yl)amino)-6-(4-methoxyphenyl)-2,3-diphenylpyrazolo[1,5-a]pyrimidin-7(4H)-one]: the IC50 is below 100 nM.

As to `COc1ccc(-c2c(Nc3c[nH]cn3)[nH]c3c(-c4ccccc4)c(-c4ccccc4)nn3c2=O)cc1` [Compound 184, 5-((1H-imidazol-4-yl)amino)-6-(4-methoxyphenyl)-2,3-diphenylpyrazolo[1,5-a]pyrimidin-7(4H)-one], the IC50 is below 100 nM.

Turning to `COc1ccc(-c2c(Nc3cn[nH]n3)[nH]c3c(-c4ccccc4)c(-c4ccccc4)nn3c2=O)cc1` [Compound 185, 5-((2H-1,2,3-triazol-4-yl)amino)-6-(4-methoxyphenyl)-2,3-diphenylpyrazolo[1,5-a]pyrimidin-7(4H)-one], the IC50 was below 100 nM.

In the case of `COc1ccc(-c2c(Nc3cc(N)[nH]n3)[nH]c3c(-c4ccccc4)c(-c4ccccc4)nn3c2=O)cc1` [Compound 186, 5-((5-amino-1H-pyrazol-3-yl)amino)-6-(4-methoxyphenyl)-2,3-diphenylpyrazolo[1,5-a]pyrimidin-7(4H)-one], the IC50 is below 100 nM.

As to `O=c1c(-c2ccc3ncccc3c2)c(Nc2cc[nH]n2)[nH]c2c(-c3ccccc3)c(-c3ccccc3)nn12` [Compound 187, 5-((1H-pyrazol-3-yl)amino)-2,3-diphenyl-6-(quinolin-6-yl)pyrazolo[1,5-a]pyrimidin-7(4H)-one], the IC50 is below 100 nM.

Turning to `Cc1cc(Nc2[nH]c3c(-c4ccccc4)c(-c4ccccc4)nn3c(=O)c2-c2ccc3ncccc3c2)n[nH]1` [Compound 188, 5-((5-methyl-1H-pyrazol-3-yl)amino)-2,3-diphenyl-6-(quinolin-6-yl)pyrazolo[1,5-a]pyrimidin-7(4H)-one], the IC50 was below 100 nM.

In the case of `COc1ccc(-c2c(Nc3ccn[nH]3)[nH]c3c(C4=CCCCC4)c(-c4ccccc4)nn3c2=O)cc1` [Compound 189, 5-((1H-pyrazol-5-yl)amino)-3-(cyclohex-1-en-1-yl)-6-(4-methoxyphenyl)-2-phenyl pyrazolo[1,5-a]pyrimidin-7(4H)-one], the IC50 is below 100 nM.

Consider `O=c1c(-c2ccc3ncccc3c2)c(Nc2ccn[nH]2)[nH]c2c(C3=CCCCC3)c(-c3ccccc3)nn12` [Compound 190, 5-((1H-pyrazol-5-yl)amino)-3-(cyclohex-1-en-1-yl)-2-phenyl-6-(quinolin-6-yl)pyrazolo[1,5-a]pyrimidin-7(4H)-one], for which the IC50 was below 100 nM.

`O=c1c(-c2ccc3nccnc3c2)c(Nc2ccn[nH]2)[nH]c2c(C3=CCCCC3)c(-c3ccccc3)nn12` [Compound 191, 5-((1H-pyrazol-5-yl)amino)-3-(cyclohex-1-en-1-yl)-2-phenyl-6-(quinoxalin-6-yl)pyrazolo[1,5-a]pyrimidin-7(4H)-one]: the IC50 was below 100 nM.

In the case of `COc1ccc(-c2c(Nc3cscn3)[nH]c3c(-c4ccccc4)c(-c4ccccc4)nn3c2=O)cc1` [Compound 192, 6-(4-methoxyphenyl)-2,3-diphenyl-5-(thiazol-4-ylamino)pyrazolo[1,5-a]pyrimidin-7(4H)-one], the IC50 was below 100 nM.

For the compound `O=c1c(-c2ccc(O)cc2)c(Nc2cc[nH]n2)[nH]c2c(-c3ccccc3)c(-c3ccccc3)nn12` [Compound 193, 5-((1H-pyrazol-3-yl)amino)-6-(4-hydroxyphenyl)-2,3-diphenylpyrazolo[1,5-a]pyrimidin-7(4H)-one], the IC50 was below 100 nM.

`O=c1c(-c2ccc(O)cc2)c(Nc2cnccn2)[nH]c2c(C3=CCCCC3)c(-c3ccccc3)nn12` [Compound 194, 3-cyclohexenyl-6-(4-hydroxyphenyl)-2-phenyl-5-(pyrazin-2-ylamino)pyrazolo[1,5-a]pyrimidin-7(4H)-one]: the IC50 is below 100 nM.

As for `O=c1c(-c2ccc(O)cc2)c(Nc2nc[nH]n2)[nH]c2c(-c3ccccc3)c(-c3ccccc3)nn12` [Compound 195, 5-((1H-1,2,4-triazol-3-yl)amino)-6-(4-hydroxyphenyl)-2,3-diphenylpyrazolo[1,5-a]pyrimidin-7(4H)-one], the IC50 is below 100 nM.

Turning to `Cc1nc2ccc(-c3c(Nc4ccccn4)[nH]c4c(-c5ccccc5)c(-c5ccccc5)nn4c3=O)cc2s1` [Compound 196, 6-(2-methylbenzo[d]thiazol-6-yl)-2,3-diphenyl-5-(pyridin-2-ylamino)pyrazolo[1,5-a]pyrimidin-7(4H)-one], the IC50 was below 100 nM.

In the case of `O=c1c(-c2ccc3c(c2)NCCO3)c(Nc2ccccn2)[nH]c2c(-c3ccccc3)c(-c3ccccc3)nn12` [Compound 197, 6-(3,4-dihydro-2H-benzo[b][1,4]oxazin-6-yl)-2,3-diphenyl-5-(pyridin-2-ylamino) pyrazolo[1,5-a]pyrimidin-7(4H)-one], the IC50 was below 100 nM.

Turning to `CN1CCOc2ccc(-c3c(Nc4ccccn4)[nH]c4c(-c5ccccc5)c(-c5ccccc5)nn4c3=O)cc21` [Compound 198, 6-(4-methyl-3,4-dihydro-2H-benzo[b][1,4]oxazin-6-yl)-2,3-diphenyl-5-(pyridin-2-ylamino)pyrazolo[1,5-a]pyrimidin-7(4H)-one], the IC50 is below 100 nM.

On to `CCNC(=O)c1nnc(Nc2[nH]c3c(-c4ccccc4)c(-c4ccccc4)nn3c(=O)c2-c2ccc3ncccc3c2)o1` [Compound 199, N-ethyl-5-((7-oxo-2,3-diphenyl-6-(quinolin-6-yl)-4,7-dihydropyrazolo[1,5-a]pyrimidin-5-yl)amino)-1,3,4-oxadiazole-2-carboxamide], for which the IC50 is below 100 nM.

For `COc1ccc(-c2c(N/C(N)=N/O)[nH]c3c(-c4ccccc4)c(-c4ccccc4)nn3c2=O)cc1` [Compound 200, (E)-2-hydroxy-1-(6-(4-methoxyphenyl)-7-oxo-2,3-diphenyl-4,7-dihydropyrazolo[1,5-a]pyrimidin-5-yl)guanidine], the IC50 is below 100 nM.

Consider `COc1ccc(-c2c(Nc3ccn(COC(=O)[C@@H](N)C(C)C)n3)[nH]c3c(-c4ccccc4)c(-c4ccccc4)nn3c2=O)cc1` [Compound 201, (S)-(3-((6-(4-methoxyphenyl)-7-oxo-2,3-diphenyl-4,7-dihydropyrazolo[1,5-a]pyrimidin-5-yl)amino)-1H-pyrazol-1-yl)methyl 2-amino-3-methylbutanoate], for which the IC50 is below 100 nM.

As to `COc1ccc(-c2c(Nc3ccccn3)[nH]c3c(C4=CCCCC4)c(-c4ccccn4)nn3c2=O)cc1` [Compound 203, 3-(cyclohex-1-en-1-yl)-6-(4-methoxyphenyl)-2-(pyridin-2-yl)-5-(pyridin-2-ylamino)pyrazolo[1,5-a]pyrimidin-7(4H)-one], the IC50 was below 100 nM.

Take `Cc1[nH]c2c(-c3ccccc3)c(-c3ccccc3)nn2c(=O)c1-c1ccc2ncccc2c1` [Compound 204, 5-methyl-2,3-diphenyl-6-(quinolin-6-yl)pyrazolo[1,5-a]pyrimidin-7(4H)-one]: the IC50 is below 100 nM.

On to `Cc1[nH]c2c(-c3ccccc3)c(-c3ccccc3F)nn2c(=O)c1-c1ccc2ncccc2c1` [Compound 205, 2-(2-fluorophenyl)-5-methyl-3-phenyl-6-(quinolin-6-yl)pyrazolo[1,5-a]pyrimidin-7(4H)-one], for which the IC50 is below 100 nM.

Take `Cc1[nH]c2c(N3CCCCC3)c(-c3ccccc3)nn2c(=O)c1-c1ccc2ncccc2c1` [Compound 206, 5-methyl-2-phenyl-3-(piperidin-1-yl)-6-(quinolin-6-yl)pyrazolo[1,5-a]pyrimidin-7(4H)-one]: the IC50 is below 100 nM.

`Cc1[nH]c2c(N3CCC(F)(F)CC3)c(-c3ccccc3)nn2c(=O)c1-c1ccc2ncccc2c1` [Compound 207, 3-(4,4-difluoropiperidin-1-yl)-5-methyl-2-phenyl-6-(quinolin-6-yl)pyrazolo[1,5-a]pyrimidin-7(4H)-one]: the IC50 was below 100 nM.

`Cc1[nH]c2c(C3=CCCCC3)c(-c3ccccc3)nn2c(=O)c1-c1ccc2nccnc2c1` [Compound 208, 3-(cyclohex-1-en-1-yl)-5-methyl-2-phenyl-6-(quinoxalin-6-yl)pyrazolo[1,5-a]pyrimidin-7(4H)-one]: the IC50 was below 100 nM.

Consider `COc1ccc(-c2c(C)[nH]c3c(-c4ccccc4)c(-c4ccccc4)nn3c2=O)cc1` [Compound 209, 6-(4-methoxyphenyl)-5-methyl-2,3-diphenylpyrazolo[1,5-a]pyrimidin-7(4H)-one], for which the IC50 was below 100 nM.
